Measurements taken from patent publication US20220338769A1, “METHODS AND APPARATUS FOR SUBSTANCE DELIVERY IN AN IMPLANTABLE DEVICE” (GlySens Incorporated, priority 2021, published 2022).

How the values were obtained:
[1] = cited from earlier work
[2] = human, in vivo
[3] = cited from earlier work; remark: listed apart in the source
[4] = Expected patient plasma DXA at the exemplary elution rates; format: in vivo; settings: below LOQ
Experimental: With a manufacturing process that consists of at least two months (60 days) from the start of elution until implant, and using data from in vitro release testing, a daily release of between approximately 2 and 5 μg DXA in one exemplary embodiment is expected over the life of the implant (average of approximately 3 μg/day). These exemplary elution rates are within range of the elution rates seen in the above-referenced predicate devices. At these elution rates, it can be reasonably expected that patient plasma DXA levels to be below the 50 pg/mL LOQ. The full modeled release profile is shown in FIG. 2, which illustrates total release 212 of DXA from the implantable sensor device accumulating prior to implantation with, daily release 214 of DXA from the implantable sensor starting at a rate of approximately 4.8 μg per day upon implantation and gradually reducing to below 2.0 μg/day over the period of implantation. In other embodiments, DSP, other dexamethasone compounds, and/or other eluting anti-inflammatory drugs may be used similarly.

Row | daily dose required to have a DXA level greater than the LOQ in plasma [2] | expected patient plasma DXA levels [4] | Structure (SMILES) | water solubility [1] | plasma DXA ([3]; one device implanted, no measurable DXA, LOQ = 50 pg/mL) | maximum reported plasma DXA ([3]; two devices implanted) | time DXA measurable in plasma after implant ([3]; two devices implanted, some patients)
1 | – | – | C[C@@H]1C[C@H]2[C@@H]3CCC4=CC(=O)C=C[C@]4(C)[C@@]3(F)[C@@H](O)C[C@]2(C)[C@@]1(O)C(=O)COP(=O)(O)O [DSP, dexamethasone sodium phosphate] | highly water soluble | – | – | –
2 | ≥ 15 µg | < 50 pg/mL | CC(=O)OCC(=O)[C@@]1(O)[C@H](C)C[C@H]2[C@@H]3CCC4=CC(=O)C=C[C@]4(C)[C@@]3(F)[C@@H](O)C[C@@]21C [DXA, dexamethasone acetate] | – | < 50 pg/mL | 114 pg/mL | up to 8 days
